In patent publication US20260034111A1, “NOVEL HETEROCYCLES AS sPLA2-X INHIBITORS” (Cayman Chemical Company Incorporated, priority 2022, published 2026) one finds IC50, Rmax and Kd data, which are given here for 22 compounds.

Counter-ions that a name gives are not always drawn.

The target in test [1] is T1, recombinant human sPLA2-V enzyme (Homo sapiens, UniProt P39877).
T1 construct: made in house; host or cells: E. coli
T1 sequence (P39877 21-138): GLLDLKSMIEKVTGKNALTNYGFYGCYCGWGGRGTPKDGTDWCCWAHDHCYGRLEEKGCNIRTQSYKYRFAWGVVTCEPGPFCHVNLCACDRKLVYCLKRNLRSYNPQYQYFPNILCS
In words: sPLA2-V enzyme inhibition assay (thio-PC substrate, DTNB detection, absorbance 410 nm). As to conditions: class symbols; read-out: sPLA2 Type V Inhibition (IC50; nM). It counts as biochemical.

The target in test [2] is T2, sPLA2-X protein (Homo sapiens, UniProt O15496).
T2 sequence (O15496 43-165): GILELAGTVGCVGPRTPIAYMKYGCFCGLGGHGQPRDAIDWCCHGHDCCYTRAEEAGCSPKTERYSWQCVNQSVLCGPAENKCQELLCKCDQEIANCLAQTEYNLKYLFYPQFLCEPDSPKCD
In words: sPLA2-X enzyme inhibition assay (thio-PC substrate, DTNB detection, absorbance 410 nm). In kind it is biochemical. On the set-up: made in house; host or cells: E. coli. As to conditions: class symbols; read-out: sPLA2 Type X Inhibition (IC50; nM).

The target of test [3] is T3, recombinant human sPLA2-IIA enzyme (Homo sapiens, UniProt P14555).
T3 construct: made in house; host or cells: E. coli
T3 sequence (P14555 21-144): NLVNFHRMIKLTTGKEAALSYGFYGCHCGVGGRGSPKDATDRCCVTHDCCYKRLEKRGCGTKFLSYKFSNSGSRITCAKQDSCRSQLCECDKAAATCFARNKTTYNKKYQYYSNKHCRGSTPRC
As to the kind of experiment: sPLA2-IIA enzyme inhibition assay (thio-PC substrate, DTNB detection, absorbance 410 nm). It counts as biochemical. The conditions noted are these: class symbols; read-out: sPLA2 Type IIa Inhibition (IC50; nM).

For test [4], the target named is T2, sPLA2-X protein. In words: SPR single cycle kinetic binding analysis against sPLA2-X. The arrangement: His tag (implied by capture on NTA surface and by anti-His antibody). As to conditions: protein captured cross-linked on NTA surface, 1:1 fit. How it is done:
sPLA2-X protein was captured on flow cell 2-4 on activated NTA surface (NTA Series S Sensorchip (Cytiva)) after dilution in 1×HBS-EP+buffer (Cytiva), 10 mM CaCl2 to 0.01 mg/mL with a flow rate of 5 μL/min for 60 sec. Single cycle kinetic binding analysis was performed using 10 mM stock solution of LY531590 (Cayman Chemical, item #18267) (prepared in DMSO diluted 1:5 in running buffer (lx HBS-EP+buffer (Cytiva)+10 mM CaCl2+2% DMSO) from 10 to 0.016 μM. Flow cell 1 was used as a reference surface and 350 mM EDTA (Cytiva) was used to regenerate the surface. DMSO solvent correction was included. A 1:1 fit was used for the kinetics analysis.
SPLA2-X protein was captured cross-linked on flow cell 2, 3, and 4 with activated NTA surface (NTA Series S Sensorchip (Cytiva)) at 0.01 mg/mL with a flow rate of […] for 60 sec. Single cycle kinetic binding analysis was performed using a 50 mM stock solution of Compound 5 (prepared in DMSO) diluted 1:5 in running buffer (1×HIBS-EP+buffer (Cytiva)+10 mM CaCl2+2% o DMSO) from 800 to 1.2 nMV. Flow cell 1 was used as a reference surface. DMSO solvent correction was included. A 1:1 fit was used for the kinetics and steady state affinity analysis.

For `NC(=O)c1cc2ccc(OC(F)(F)F)cc2n1-c1ccc2c(c1)OCC2CC(=O)O` (centres unmarked) [Compound 9, 2-(6-(2-carbamoyl-6-(trifluoromethoxy)-1H-indol-1-yl)-2,3-dihydrobenzofuran-3-yl)acetic acid], the IC50 in test [1] is greater than 5000 nM; in test [2], greater than 200 nM; in test [3] it was greater than 1000 nM.
The like results for `C[C@]1(c2cccc(-n3c(C(N)=O)cc4ccc(OC(F)(F)F)cc43)c2)C[C@H]1C(=O)O` (relative stereo) [Compound 38a, cis-2-(3-(2-carbamoyl-6-(trifluoromethoxy)-1H-indol-1-yl)phenyl)-2-methylcyclopropane-1-carboxylic acid] were, in that order, less than 500 nM, less than 20 nM and 200 to 500 nM.
With `CC(=O)NCc1cccc(-n2c(C(N)=O)cc3ccc(OC(F)(F)F)cc32)n1` [Compound 32, 1-(6-(acetamidomethyl)pyridin-2-yl)-6-(trifluoromethoxy)-1H-indole-2-carboxamide], the values for the IC50 in test [1], in test [2] and in test [3] were greater than 5000 nM, greater than 200 nM and greater than 1000 nM, respectively.
For the compound `NC(=O)c1cc2ccc(OC(F)(F)F)cc2n1-c1cccc([C@@H](N)CC(=O)O)c1` [Compound 40, (S)-3-amino-3-(3-(2-carbamoyl-6-(trifluoromethoxy)-1H-indol-1-yl)phenyl)propanoic acid], the IC50 in test [1] is greater than 5000 nM; in test [2], greater than 200 nM; in test [3] it was greater than 1000 nM.
As for `NC(=O)c1sc2ccc(OC(F)(F)F)cc2c1-c1cccc(C2CC2C(=O)O)n1` (racemic) [Compound 54, trans-(rac)-2-(6-(2-carbamoyl-5-(trifluoromethoxy)benzo[b]thiophen-3-yl)pyridin-2-yl)cyclopropane-1-carboxylic acid], the results for the IC50 in test [1], in test [2] and in test [3] were greater than 5000 nM, 50 to 200 nM and greater than 1000 nM, respectively.
As to `CC(C)(C)OC(=O)NC1(c2cccc(-n3c(C(N)=O)cc4ccc(OC(F)(F)F)cc43)n2)CCC1` [Compound 48, tert-butyl (1-(6-(2-carbamoyl-6-(trifluoromethoxy)-1H-indol-1-yl)pyridin-2-yl)cyclobutyl)carbamate], the IC50 was greater than 5000 nM in test [1], greater than 200 nM in test [2] and greater than 1000 nM in test [3].
The like results for `COc1cnc2cc(C(N)=O)n(-c3cccc(C4CC4C(=O)O)n3)c2c1` (single isomer, unassigned) [Compound 51, trans-2-(6-(2-carbamoyl-6-methoxy-1H-pyrrolo[3,2-b]pyridin-1-yl)pyridin-2-yl)cyclopropane-1-carboxylic acid] were, in that order, greater than 5000 nM, greater than 200 nM and greater than 1000 nM.
The like results for `NC(=O)c1cc2ccccc2n1-c1cccc(CCC(=O)O)c1` [Compound 21, 3-(3-(2-carbamoyl-1H-indol-1-yl)phenyl)propanoic acid] were, in that order, greater than 5000 nM, greater than 200 nM and greater than 1000 nM.
The like results for `NC(=O)c1cc2ccc(OC(F)(F)F)cc2n1-c1cccc(N2CC[C@@H]2C(=O)O)n1` [Compound 70, (R)-1-(6-(2-carbamoyl-6-(trifluoromethoxy)-1H-indol-1-yl)pyridin-2-yl)azetidine-2-carboxylic acid] were, in that order, 500 to 1500 nM, less than 20 nM and greater than 1000 nM.
Take `NC(=O)c1cc2ccc(OC(F)(F)F)cc2n1-c1cccc(SCC(=O)O)n1` [Compound 44, 2-((6-(2-carbamoyl-6-(trifluoromethoxy)-1H-indol-1-yl)pyridin-2-yl)thio)acetic acid]: the IC50 in test [1] is greater than 5000 nM; in test [2], less than 20 nM; in test [3], greater than 1000 nM.
Take `NC(=O)c1nc2ccc(OC(F)(F)F)cc2n1-c1cccc(C2CC2C(=O)O)n1` (stereo not drawn) [Compound 58, trans-2-(6-(2-carbamoyl-6-(trifluoromethoxy)-1H-benzo[d]imidazol-1-yl)pyridin-2-yl)cyclopropane-1-carboxylic acid]: the IC50 in test [1] is greater than 5000 nM; in test [2] it was greater than 200 nM; in test [3], greater than 1000 nM.
For the compound `NC(=O)c1cc2ccc(OC(F)(F)F)cc2n1-c1cccc(C2CC2C(=O)O)n1` (racemic) [Compound 28, trans-(rac)-2-(6-(2-carbamoyl-6-(trifluoromethoxy)-1H-indol-1-yl)pyridin-2-yl)cyclopropane-1-carboxylic acid], the half-maximal inhibitory concentration (IC50) in test [1] was greater than 5000 nM; in test [2], less than 20 nM; in test [3] it was greater than 1000 nM.
`NC(=O)c1sc2ccc(OC(F)(F)F)cc2c1-c1cccc(CCC(=O)O)c1` [Compound 5, 3-(3-(2-carbamoyl-5-(trifluoromethoxy)benzo[b]thiophen-3-yl)phenyl)propanoic acid]: the IC50 lay in the range of 1500 to 5000 nM in test [1], 20 to 50 nM in test [2] and 200 to 500 nM in test [3]. Besides, the Rmax in test [4] is recorded as 2.13. In test [4] (kinetics and steady state affinity), the affinity, expressed as Kd, was 8.02 nM.
As for `NC(=O)c1cc2ccc(OC(F)(F)F)cc2n1-c1cccc(C2(N)CCC2)n1` [Compound 49, 1-(6-(1-aminocyclobutyl)pyridin-2-yl)-6-(trifluoromethoxy)-1H-indole-2-carboxamide TFA salt], the IC50 in test [1] is greater than 5000 nM; in test [2], greater than 200 nM; in test [3], greater than 1000 nM.
For the compound `NC(=O)c1oc2ccc(OC(F)(F)F)cc2c1-c1cccc(CCC(=O)O)c1` [Compound 17, 3-(3-(2-carbamoyl-5-(trifluoromethoxy)benzofuran-3-yl)phenyl)propanoic acid], the values for the IC50 in test [1], in test [2] and in test [3] were greater than 5000 nM, greater than 200 nM and greater than 1000 nM, respectively.
As for `NC(=O)c1cc2ccc(OC(F)(F)F)cc2n1-c1cccc(C2CC2C(=O)O)n1` (single isomer, unassigned) [Compound 28e, cis-(+)-2-(6-(2-carbamoyl-6-(trifluoromethoxy)-1H-indol-1-yl)pyridin-2-yl)cyclopropane-1-carboxylic acid], the IC50 is greater than 5000 nM in test [1], less than 20 nM in test [2] and less than 200 nM in test [3].
The like results for `CC(C)(Sc1cccc(-n2c(C(N)=O)cc3ccc(OC(F)(F)F)cc32)c1)C(=O)O` [Compound 2, 2-((3-(2-carbamoyl-6-(trifluoromethoxy)-1H-indol-1-yl)phenyl)thio)-2-methylpropanoic acid] were, in that order, 500 to 1500 nM, less than 20 nM and 200 to 500 nM.
The like results for `COC(=O)CC1(c2cccc(-c3c(C(N)=O)sc4ccc(OC(F)(F)F)cc34)c2)CC1` [Compound 35, methyl 2-(1-(3-(2-carbamoyl-5-(trifluoromethoxy)benzo[b]thiophen-3-yl)phenyl)cyclopropyl)acetate] were, in that order, greater than 5000 nM, greater than 200 nM and greater than 1000 nM.
The like results for `NC(=O)c1cc2ccc(OC(F)(F)F)cc2n1-c1cccc(CNC(=O)C(F)(F)F)n1` [Compound 37, 1-(6-((2,2,2-trifluoroacetamido)methyl)pyridin-2-yl)-6-(trifluoromethoxy)-1H-indole-2-carboxamide] were, in that order, greater than 5000 nM, greater than 200 nM and greater than 1000 nM.
On to `NC(=O)c1cc2ccc(OC(F)(F)F)cc2n1-c1cccc(S(=O)(=O)CC(=O)O)n1` [Compound 45, 2-((6-(2-carbamoyl-6-(trifluoromethoxy)-1H-indol-1-yl)pyridin-2-yl)sulfonyl)acetic acid], for which the IC50 was greater than 5000 nM in test [1], 20 to 50 nM in test [2] and greater than 1000 nM in test [3].
For the compound `NC(=O)c1cc2ccc(OC(F)(F)F)cc2n1-c1cccc(C2CC2C(=O)O)c1` (single isomer, unassigned) [Compound 15a, trans-(+)-2-(3-(2-carbamoyl-6-(trifluoromethoxy)-1H-indol-1-yl)phenyl)cyclopropane-1-carboxylic acid], the IC50 was greater than 5000 nM in test [1], greater than 200 nM in test [2] and greater than 1000 nM in test [3].
The like results for `CC(C)(Cc1cccc(-n2c(C(N)=O)cc3ccc(OC(F)(F)F)cc32)c1)C(=O)O` [Compound 3, 3-(3-(2-carbamoyl-6-(trifluoromethoxy)-1H-indol-1-yl)phenyl)-2,2-dimethylpropanoic acid] were, in that order, 1500 to 5000 nM, less than 20 nM and 500 to 1000 nM.
